US11021457B2, “Class of isoindolone-imide ring-1,3-dione-2-ene compounds, composition and use thereof” (WIGEN BIOMEDICINE TECHNOLOGY (SHANGHAI) CO., LTD., priority 2017, dated 2021)

test system: BxPC-3; assay: Inhibition of tumor cell proliferation, CellTiter-Glo, BxPC-3; format: cell-based; conditions: Homo sapiens, BXPC-3; compound concentration 50 μM, 72 hours; read-out: Inhibitory activity against proliferation (cell survival rate) BxPC-3
In short: (§1)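 Luminescent ATP read-out (CellTiter-Glo) after 72 hours gave survival relative to untreated wells, corrected for blank. Activity categories were assigned from survival at 50 μM: ≤30% high, >30-60% moderate, 60-<90% low.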

Structure (SMILES)	cell survival rate (%) at 50 µM [%]
CC1(C#N)C(=O)/C(=C/Nc2cccc3c2CN(C2CCC(=O)NC2=O)C3=O)C(=O)CC1c1ccccc1 (stereo not drawn) [Compound 139]	60 to 90

same assay, conditions: compound concentration 50 μM, 72 hours

Structure (SMILES)	Inhibitory activity against proliferation (cell survival rate) BxPC-3
CC(C)Cn1cccc1C1CC(=O)C(=CNc2cccc3c2CN(C2CCC(=O)NC2=O)C3=O)C(=O)C1 (stereo not drawn) [Compound 116]	++ (30<survival rate (%)≤60)
O=C1CCC(N2Cc3c(NC=C4C(=O)CC(c5ccc(-c6ccncc6)cc5)CC4=O)cccc3C2=O)C(=O)N1 (stereo not drawn) [Compound 117]	+ (60≤survival rate (%)<90)
O=C1CCC(N2Cc3c(NC=C4C(=O)CC(COc5ccccc5)CC4=O)cccc3C2=O)C(=O)N1 (stereo not drawn) [Compound 118]	+ (60≤survival rate (%)<90)
O=C1CCC(N2Cc3c(NC=C4C(=O)CC(/C=C/c5ccccc5)CC4=O)cccc3C2=O)C(=O)N1 (stereo not drawn) [Compound 120]	+ (60≤survival rate (%)<90)
O=C1CCC(N2C(=O)c3cccc(OCCOCCOCCOCCN4CCN(CCNC=C5C(=O)CC(c6ccccc6)CC5=O)CC4)c3C2=O)C(=O)N1 (stereo not drawn) [Compound 125]	++ (30<survival rate (%)≤60)
O=C1CCC(N2Cc3c(NC=C4C(=O)CC(c5ncnc6sccc56)CC4=O)cccc3C2=O)C(=O)N1 (stereo not drawn) [Compound 130]	+ (60≤survival rate (%)<90)
O=C1CCC(N2Cc3c(NCCOCCOCCOCCN4CCN(CCNC=C5C(=O)CC(c6ccccc6)CC5=O)CC4)cccc3C2=O)C(=O)N1 (stereo not drawn) [Compound 133]	++ (30<survival rate (%)≤60)
CCOC(=O)C1CC(=O)C(=CNc2cccc3c2CN(C2CCC(=O)NC2=O)C3=O)C(=O)C1 (stereo not drawn) [Compound 134]	++ (30<survival rate (%)≤60)
O=C1CCC(N2Cc3c(NC=C4C(=O)CC(C(=O)Nc5ccc(Cl)cc5)CC4=O)cccc3C2=O)C(=O)N1 (stereo not drawn) [Compound 135]	+ (60≤survival rate (%)<90)

test system: A549; assay: Inhibition of tumor cell proliferation, CellTiter-Glo, A549; format: cell-based; conditions: Homo sapiens, A549; compound concentration 50 μM, 72 hours; read-out: Inhibitory activity against proliferation (cell survival rate) A549
In short: as §1

Structure (SMILES)	cell survival rate (% of control) at 50 µM [%]
CC1(C#N)C(=O)/C(=C/Nc2cccc3c2CN(C2CCC(=O)NC2=O)C3=O)C(=O)CC1c1ccccc1 (stereo not drawn) [Compound 139]	60 to 90

same assay, conditions: compound concentration 50 μM, 72 hours

Structure (SMILES)	Inhibitory activity against proliferation (cell survival rate) A549
CC(C)Cn1cccc1C1CC(=O)C(=CNc2cccc3c2CN(C2CCC(=O)NC2=O)C3=O)C(=O)C1 (stereo not drawn) [Compound 116]	++ (30<survival rate (%)≤60)
O=C1CCC(N2Cc3c(NC=C4C(=O)CC(c5ccc(-c6ccncc6)cc5)CC4=O)cccc3C2=O)C(=O)N1 (stereo not drawn) [Compound 117]	+ (60≤survival rate (%)<90)
O=C1CCC(N2Cc3c(NC=C4C(=O)CC(COc5ccccc5)CC4=O)cccc3C2=O)C(=O)N1 (stereo not drawn) [Compound 118]	+ (60≤survival rate (%)<90)
O=C1CCC(N2Cc3c(NC=C4C(=O)CC(/C=C/c5ccccc5)CC4=O)cccc3C2=O)C(=O)N1 (stereo not drawn) [Compound 120]	+ (60≤survival rate (%)<90)
O=C1CCC(N2C(=O)c3cccc(OCCOCCOCCOCCN4CCN(CCNC=C5C(=O)CC(c6ccccc6)CC5=O)CC4)c3C2=O)C(=O)N1 (stereo not drawn) [Compound 125]	+ (60≤survival rate (%)<90)
O=C1CCC(N2Cc3c(NC=C4C(=O)CC(c5ncnc6sccc56)CC4=O)cccc3C2=O)C(=O)N1 (stereo not drawn) [Compound 130]	+++ (survival rate (%)≤30)
O=C1CCC(N2Cc3c(NCCOCCOCCOCCN4CCN(CCNC=C5C(=O)CC(c6ccccc6)CC5=O)CC4)cccc3C2=O)C(=O)N1 (stereo not drawn) [Compound 133]	+ (60≤survival rate (%)<90)
CCOC(=O)C1CC(=O)C(=CNc2cccc3c2CN(C2CCC(=O)NC2=O)C3=O)C(=O)C1 (stereo not drawn) [Compound 134]	+ (60≤survival rate (%)<90)
O=C1CCC(N2Cc3c(NC=C4C(=O)CC(C(=O)Nc5ccc(Cl)cc5)CC4=O)cccc3C2=O)C(=O)N1 (stereo not drawn) [Compound 135]	+++ (survival rate (%)≤30)

test system: MDA-MB-453; assay: Inhibition of tumor cell proliferation, CellTiter-Glo, MDA-MB-453; format: cell-based; conditions: Homo sapiens, MDA-MB-453; compound concentration 50 μM, 72 hours; read-out: Inhibitory activity against proliferation (cell survival rate) MDA-MB-453
In short: as §1

Structure (SMILES)	cell survival rate (%) at 50 µM [%]
CC1(C#N)C(=O)/C(=C/Nc2cccc3c2CN(C2CCC(=O)NC2=O)C3=O)C(=O)CC1c1ccccc1 (stereo not drawn) [Compound 139]	≤ 30

same assay, conditions: compound concentration 50 μM, 72 hours

Structure (SMILES)	Inhibitory activity against proliferation (cell survival rate) MDA-MB-453
CC(C)Cn1cccc1C1CC(=O)C(=CNc2cccc3c2CN(C2CCC(=O)NC2=O)C3=O)C(=O)C1 (stereo not drawn) [Compound 116]	++ (30<survival rate (%)≤60)
O=C1CCC(N2Cc3c(NC=C4C(=O)CC(c5ccc(-c6ccncc6)cc5)CC4=O)cccc3C2=O)C(=O)N1 (stereo not drawn) [Compound 117]	+ (60≤survival rate (%)<90)
O=C1CCC(N2Cc3c(NC=C4C(=O)CC(COc5ccccc5)CC4=O)cccc3C2=O)C(=O)N1 (stereo not drawn) [Compound 118]	+ (60≤survival rate (%)<90)
O=C1CCC(N2Cc3c(NC=C4C(=O)CC(/C=C/c5ccccc5)CC4=O)cccc3C2=O)C(=O)N1 (stereo not drawn) [Compound 120]	++ (30<survival rate (%)≤60)
O=C1CCC(N2C(=O)c3cccc(OCCOCCOCCOCCN4CCN(CCNC=C5C(=O)CC(c6ccccc6)CC5=O)CC4)c3C2=O)C(=O)N1 (stereo not drawn) [Compound 125]	+++ (survival rate (%)≤30)
O=C1CCC(N2Cc3c(NC=C4C(=O)CC(c5ncnc6sccc56)CC4=O)cccc3C2=O)C(=O)N1 (stereo not drawn) [Compound 130]	+++ (survival rate (%)≤30)
O=C1CCC(N2Cc3c(NCCOCCOCCOCCN4CCN(CCNC=C5C(=O)CC(c6ccccc6)CC5=O)CC4)cccc3C2=O)C(=O)N1 (stereo not drawn) [Compound 133]	+ (60≤survival rate (%)<90)
CCOC(=O)C1CC(=O)C(=CNc2cccc3c2CN(C2CCC(=O)NC2=O)C3=O)C(=O)C1 (stereo not drawn) [Compound 134]	+++ (survival rate (%)≤30)
O=C1CCC(N2Cc3c(NC=C4C(=O)CC(C(=O)Nc5ccc(Cl)cc5)CC4=O)cccc3C2=O)C(=O)N1 (stereo not drawn) [Compound 135]	+++ (survival rate (%)≤30)

test system: K562; assay: Inhibition of tumor cell proliferation, CellTiter-Glo, K562; format: cell-based; conditions: Homo sapiens, K562; compound concentration 50 μM, 72 hours; read-out: Inhibitory activity against proliferation (cell survival rate) K562
In short: as §1

Structure (SMILES)	cell survival rate (%) at 50 µM [%]
CC1(C#N)C(=O)/C(=C/Nc2cccc3c2CN(C2CCC(=O)NC2=O)C3=O)C(=O)CC1c1ccccc1 (stereo not drawn) [Compound 139]	≤ 30

same assay, conditions: compound concentration 50 μM, 72 hours

Structure (SMILES)	Inhibitory activity against proliferation (cell survival rate) K562
CC(C)Cn1cccc1C1CC(=O)C(=CNc2cccc3c2CN(C2CCC(=O)NC2=O)C3=O)C(=O)C1 (stereo not drawn) [Compound 116]	++ (30<survival rate (%)≤60)
O=C1CCC(N2Cc3c(NC=C4C(=O)CC(c5ccc(-c6ccncc6)cc5)CC4=O)cccc3C2=O)C(=O)N1 (stereo not drawn) [Compound 117]	++ (30<survival rate (%)≤60)
O=C1CCC(N2Cc3c(NC=C4C(=O)CC(COc5ccccc5)CC4=O)cccc3C2=O)C(=O)N1 (stereo not drawn) [Compound 118]	++ (30<survival rate (%)≤60)
O=C1CCC(N2Cc3c(NC=C4C(=O)CC(/C=C/c5ccccc5)CC4=O)cccc3C2=O)C(=O)N1 (stereo not drawn) [Compound 120]	++ (30<survival rate (%)≤60)
O=C1CCC(N2C(=O)c3cccc(OCCOCCOCCOCCN4CCN(CCNC=C5C(=O)CC(c6ccccc6)CC5=O)CC4)c3C2=O)C(=O)N1 (stereo not drawn) [Compound 125]	+ (60≤survival rate (%)<90)
O=C1CCC(N2Cc3c(NC=C4C(=O)CC(c5ncnc6sccc56)CC4=O)cccc3C2=O)C(=O)N1 (stereo not drawn) [Compound 130]	++ (30<survival rate (%)≤60)
O=C1CCC(N2Cc3c(NCCOCCOCCOCCN4CCN(CCNC=C5C(=O)CC(c6ccccc6)CC5=O)CC4)cccc3C2=O)C(=O)N1 (stereo not drawn) [Compound 133]	++ (30<survival rate (%)≤60)
CCOC(=O)C1CC(=O)C(=CNc2cccc3c2CN(C2CCC(=O)NC2=O)C3=O)C(=O)C1 (stereo not drawn) [Compound 134]	+ (60≤survival rate (%)<90)
O=C1CCC(N2Cc3c(NC=C4C(=O)CC(C(=O)Nc5ccc(Cl)cc5)CC4=O)cccc3C2=O)C(=O)N1 (stereo not drawn) [Compound 135]	++ (30<survival rate (%)≤60)

test system: SU-DHL6; assay: Inhibition of tumor cell proliferation, CellTiter-Glo, SU-DHL6; format: cell-based; conditions: Homo sapiens, SU-DHL-6; compound concentration 50 μM, 72 hours; read-out: Inhibitory activity against proliferation (cell survival rate) SU-DHL6
In short: as §1

Structure (SMILES)	cell survival rate (% of control) at 50 µM [%]
CC1(C#N)C(=O)/C(=C/Nc2cccc3c2CN(C2CCC(=O)NC2=O)C3=O)C(=O)CC1c1ccccc1 (stereo not drawn) [Compound 139]	≤ 30

same assay, conditions: compound concentration 50 μM, 72 hours

Structure (SMILES)	Inhibitory activity against proliferation (cell survival rate) SU-DHL6
CC(C)Cn1cccc1C1CC(=O)C(=CNc2cccc3c2CN(C2CCC(=O)NC2=O)C3=O)C(=O)C1 (stereo not drawn) [Compound 116]	+ (60≤survival rate (%)<90)
O=C1CCC(N2Cc3c(NC=C4C(=O)CC(c5ccc(-c6ccncc6)cc5)CC4=O)cccc3C2=O)C(=O)N1 (stereo not drawn) [Compound 117]	+ (60≤survival rate (%)<90)
O=C1CCC(N2Cc3c(NC=C4C(=O)CC(COc5ccccc5)CC4=O)cccc3C2=O)C(=O)N1 (stereo not drawn) [Compound 118]	+ (60≤survival rate (%)<90)
O=C1CCC(N2Cc3c(NC=C4C(=O)CC(/C=C/c5ccccc5)CC4=O)cccc3C2=O)C(=O)N1 (stereo not drawn) [Compound 120]	++ (30<survival rate (%)≤60)
O=C1CCC(N2C(=O)c3cccc(OCCOCCOCCOCCN4CCN(CCNC=C5C(=O)CC(c6ccccc6)CC5=O)CC4)c3C2=O)C(=O)N1 (stereo not drawn) [Compound 125]	+++ (survival rate (%)≤30)
O=C1CCC(N2Cc3c(NC=C4C(=O)CC(c5ncnc6sccc56)CC4=O)cccc3C2=O)C(=O)N1 (stereo not drawn) [Compound 130]	+++ (survival rate (%)≤30)
O=C1CCC(N2Cc3c(NCCOCCOCCOCCN4CCN(CCNC=C5C(=O)CC(c6ccccc6)CC5=O)CC4)cccc3C2=O)C(=O)N1 (stereo not drawn) [Compound 133]	+ (60≤survival rate (%)<90)
CCOC(=O)C1CC(=O)C(=CNc2cccc3c2CN(C2CCC(=O)NC2=O)C3=O)C(=O)C1 (stereo not drawn) [Compound 134]	+ (60≤survival rate (%)<90)
O=C1CCC(N2Cc3c(NC=C4C(=O)CC(C(=O)Nc5ccc(Cl)cc5)CC4=O)cccc3C2=O)C(=O)N1 (stereo not drawn) [Compound 135]	+++ (survival rate (%)≤30)

test system: RPMI-8226; assay: Inhibition of tumor cell proliferation, CellTiter-Glo, RPMI-8226; format: cell-based; conditions: Homo sapiens, RPMI-8226; compound concentration 50 μM, 72 hours; read-out: Inhibitory activity against proliferation (cell survival rate) RPMI-8226
In short: as §1

Structure (SMILES)	cell survival rate (% of control) at 50 µM [%]
CC1(C#N)C(=O)/C(=C/Nc2cccc3c2CN(C2CCC(=O)NC2=O)C3=O)C(=O)CC1c1ccccc1 (stereo not drawn) [Compound 139]	≤ 30

same assay, conditions: compound concentration 50 μM, 72 hours

Structure (SMILES)	Inhibitory activity against proliferation (cell survival rate) RPMI-8226
CC(C)Cn1cccc1C1CC(=O)C(=CNc2cccc3c2CN(C2CCC(=O)NC2=O)C3=O)C(=O)C1 (stereo not drawn) [Compound 116]	++ (30<survival rate (%)≤60)
O=C1CCC(N2Cc3c(NC=C4C(=O)CC(c5ccc(-c6ccncc6)cc5)CC4=O)cccc3C2=O)C(=O)N1 (stereo not drawn) [Compound 117]	+++ (survival rate (%)≤30)
O=C1CCC(N2Cc3c(NC=C4C(=O)CC(COc5ccccc5)CC4=O)cccc3C2=O)C(=O)N1 (stereo not drawn) [Compound 118]	+ (60≤survival rate (%)<90)
O=C1CCC(N2Cc3c(NC=C4C(=O)CC(/C=C/c5ccccc5)CC4=O)cccc3C2=O)C(=O)N1 (stereo not drawn) [Compound 120]	++ (30<survival rate (%)≤60)
O=C1CCC(N2C(=O)c3cccc(OCCOCCOCCOCCN4CCN(CCNC=C5C(=O)CC(c6ccccc6)CC5=O)CC4)c3C2=O)C(=O)N1 (stereo not drawn) [Compound 125]	+++ (survival rate (%)≤30)
O=C1CCC(N2Cc3c(NC=C4C(=O)CC(c5ncnc6sccc56)CC4=O)cccc3C2=O)C(=O)N1 (stereo not drawn) [Compound 130]	++ (30<survival rate (%)≤60)
O=C1CCC(N2Cc3c(NCCOCCOCCOCCN4CCN(CCNC=C5C(=O)CC(c6ccccc6)CC5=O)CC4)cccc3C2=O)C(=O)N1 (stereo not drawn) [Compound 133]	+ (60≤survival rate (%)<90)
CCOC(=O)C1CC(=O)C(=CNc2cccc3c2CN(C2CCC(=O)NC2=O)C3=O)C(=O)C1 (stereo not drawn) [Compound 134]	+ (60≤survival rate (%)<90)
O=C1CCC(N2Cc3c(NC=C4C(=O)CC(C(=O)Nc5ccc(Cl)cc5)CC4=O)cccc3C2=O)C(=O)N1 (stereo not drawn) [Compound 135]	++ (30<survival rate (%)≤60)
